Experimental data reported in patent publication US20220079995A1 (priority 2018, published 2022).

Tests used:
CSGALNACT1 mRNA = format: cell-based, human; details: ascorbic acid alone; 1 week; GAPDH internal standard; average ± SEM
[1] = tested on: human nucleus pulposus cells; format: cell-based; details: ascorbic acid alone (170 μM in medium), culture 2 weeks; average ± SEM; control 4.33 ± 0.38
ANGPT1 mRNA = format: cell-based, human; details: ascorbic acid alone; 1 week; GAPDH internal standard; average ± SEM
IGF1 mRNA = format: cell-based, human; details: ascorbic acid alone; 1 week; GAPDH internal standard; average ± SEM

SMILES: O=C1O[C@H]([C@@H](O)CO)C(O)=C1O [Ascorbic Acid, ascorbic acid]
- Ratio to Expression Level of CSGALNACT1 mRNA in Control Taken as 1 (CSGALNACT1 mRNA): 2.25 ± 0.55
- The Ratio of GAG to DNA [1]: 5.88 ± 0.73
- Ratio to Expression Level of ANGPT1 mRNA in Control Taken as 1 (ANGPT1 mRNA): 3.80 ± 0.91
- Ratio to Expression Level of IGF1 mRNA in Control Taken as 1 (IGF1 mRNA): 8.92 ± 3.30
